Data on eleven compounds can be found in PubChem BioAssay (NCI).

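Each compound was tested at five concentrations against cells in 96-well plates for 48 hours. TGI: concentration producing complete growth inhibition.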

Among the test systems are 786-0 renal; CAKI-1 renal; EKVX NSCLC; HS 578T breast; M14 melanoma; MALME-3M melanoma; MDA-N; OVCAR-5 ovarian; RXF 393 renal; SN12C renal; SNB-19 CNS; UO-31 renal.
Experiment in all cases: NCI anticancer screen, dose series, 48 h

On to `O=[N+]([O-])C1(C2([N+](=O)[O-])CCCC2)CCCC1`, for which the TGI with 786-0 renal, in the assay on CAKI-1 renal, with EKVX NSCLC, in the assay with HS 578T breast, with M14 melanoma and with MALME-3M melanoma was > 100 µM throughout. In addition, the TGI in the assay on MDA-N, with OVCAR-5 ovarian, in the assay on RXF 393 renal, in the assay with SN12C renal, in the assay with SNB-19 CNS and in the assay on UO-31 renal was > 100 µM each time.
On to `N#Cc1c(NC(=S)NCc2ccccc2)sc2c1CCN(N1CCc3c(sc(NC(=S)NCc4ccccc4)c3C#N)C1)C2`, for which the TGI in the assay with 786-0 renal, with CAKI-1 renal, in the assay with EKVX NSCLC, in the assay on HS 578T breast, in the assay on M14 melanoma and in the assay with MALME-3M melanoma was > 100 µM throughout. In addition, the TGI in the assay on MDA-N, with OVCAR-5 ovarian, in the assay with RXF 393 renal, with SN12C renal, with SNB-19 CNS and in the assay on UO-31 renal was > 100 µM each time.
Consider `COc1ccc(NC2=NCCO2)c2ccccc12`, for which the TGI in the assay on CAKI-1 renal, in the assay with EKVX NSCLC, with HS 578T breast, in the assay on M14 melanoma, in the assay on MALME-3M melanoma and with MDA-N was > 10 µM in each case. Further, the TGI in the assay with OVCAR-5 ovarian, with RXF 393 renal, in the assay on SN12C renal, in the assay on SNB-19 CNS and in the assay with UO-31 renal was > 10 µM throughout.
As to `Cc1cn(C2CC(N=[N+]=[N-])C(CO[Si](C)(C)C(C)(C)C)O2)c(=O)[nH]c1=O` (stereo not given), the TGI in the assay with 786-0 renal stood at 29.1 µM; in the assay with CAKI-1 renal, 37.1 µM; with EKVX NSCLC, 58.1 µM; in the assay on HS 578T breast it was 40.1 µM; in the assay on M14 melanoma, 41.5 µM; with MALME-3M melanoma, 28.1 µM. The TGI in the assay with MDA-N was determined as 34.2 µM; in the assay with OVCAR-5 ovarian, 49.1 µM; with RXF 393 renal, 32.3 µM; with SN12C renal it was 30.4 µM; in the assay with SNB-19 CNS it was 38.3 µM; in the assay with UO-31 renal, 30.7 µM.
With `C=CCn1c(=O)c(C)cn(/C(=C/C(=O)OCC)C(=O)OCC)c1=O`, the TGI in the assay on 786-0 renal was determined as 19.2 µM; in the assay with CAKI-1 renal it was 3.65 µM; with EKVX NSCLC, 28.7 µM; in the assay on HS 578T breast, 76.1 µM; with M14 melanoma, 28.1 µM; with MALME-3M melanoma it was 29.2 µM. Moreover, the TGI in the assay on MDA-N was 33.7 µM; in the assay on OVCAR-5 ovarian, 30.2 µM; in the assay with RXF 393 renal, 28.2 µM; with SN12C renal, 29.7 µM; in the assay with SNB-19 CNS it was > 86.1 µM; in the assay with UO-31 renal, 29.1 µM.
Consider `C[C@@H]1OC(=O)C[C@H]2CC(=O)N(CCc3cn(S(=O)(=O)C(F)(F)F)c4ccccc34)C[C@@H]21`, for which the TGI in the assay with 786-0 renal, in the assay on CAKI-1 renal, in the assay with EKVX NSCLC, in the assay with HS 578T breast, with M14 melanoma and in the assay with MALME-3M melanoma was > 100 µM throughout. In addition, the TGI in the assay with MDA-N, in the assay with OVCAR-5 ovarian, with RXF 393 renal, with SNB-19 CNS and in the assay on UO-31 renal was > 100 µM throughout.
In the case of `CC1=C(C(=O)OC(C)C)C(c2ccccc2[N+](=O)[O-])C(C(=O)OC(CO[N+](=O)[O-])CO[N+](=O)[O-])=C(C)N1` (stereo not given), the TGI in the assay with 786-0 renal came to 14.4 µM; in the assay with CAKI-1 renal, 19.3 µM; in the assay on EKVX NSCLC, 18.8 µM; in the assay with HS 578T breast, 25.8 µM; in the assay on M14 melanoma it was 14.3 µM; in the assay with MALME-3M melanoma it was 23.6 µM. Besides, the TGI was 8.43 µM in the assay with MDA-N; > 100 µM in the assay on OVCAR-5 ovarian; 15.5 µM in the assay on RXF 393 renal; 52.6 µM in the assay on SN12C renal; 23.8 µM in the assay on SNB-19 CNS; 16.2 µM in the assay on UO-31 renal.
Consider `Cn1c(=O)n(CC(Br)CBr)c(=O)n(CC(Br)CBr)c1=O` (stereo not given), for which the TGI in the assay with 786-0 renal was > 100 µM; in the assay with CAKI-1 renal it was > 100 µM; with EKVX NSCLC it was 88.7 µM; with HS 578T breast, > 100 µM; in the assay on M14 melanoma it was 73.6 µM; in the assay on MALME-3M melanoma, > 100 µM. In addition, the TGI in the assay on MDA-N was > 100 µM; with OVCAR-5 ovarian, > 100 µM; in the assay on RXF 393 renal it was > 100 µM; with SN12C renal, 67.3 µM; with SNB-19 CNS, > 100 µM; with UO-31 renal it was 97.6 µM.
On to `CO[C@H]1O[C@@H]2CO[C@@H](c3ccccc3)O[C@H]2C[C@]12CCC/C=C\CO2`, for which the TGI with 786-0 renal was 26.2 µM; in the assay on CAKI-1 renal it was > 75 µM; with EKVX NSCLC it was 25.8 µM; in the assay with HS 578T breast, 40 µM; with M14 melanoma it was 41.2 µM; with MALME-3M melanoma, 26.4 µM. Also, the TGI in the assay with MDA-N is 26.9 µM; in the assay with OVCAR-5 ovarian, > 75 µM; in the assay with RXF 393 renal, 28.3 µM; in the assay on SN12C renal, 29.7 µM; with SNB-19 CNS, > 75 µM; with UO-31 renal, 25.2 µM.
Consider `c1ccc(-c2cc(-c3cc(-c4ccccc4)n(-c4ccccc4)n3)nn2-c2ccccc2)cc1`, for which the TGI in the assay with 786-0 renal, with CAKI-1 renal, in the assay with EKVX NSCLC, with HS 578T breast, with M14 melanoma and with MALME-3M melanoma was > 100 µM throughout. Also, the TGI in the assay on MDA-N, with OVCAR-5 ovarian, in the assay with RXF 393 renal, with SN12C renal, with SNB-19 CNS and with UO-31 renal was > 100 µM each time.
For the compound `O=C(/C=C/c1ccc(O)c(O)c1)OCCOC(=O)/C=C/c1ccc(O)c(O)c1`, the TGI in the assay with 786-0 renal is > 100 µM; in the assay on CAKI-1 renal, > 100 µM; in the assay on EKVX NSCLC, 83.1 µM; with HS 578T breast, > 100 µM; in the assay on M14 melanoma it was 28.5 µM; in the assay with MALME-3M melanoma, > 100 µM. The TGI is 41.6 µM in the assay with MDA-N; 65.8 µM with OVCAR-5 ovarian; 51.9 µM with RXF 393 renal; 65.1 µM with SN12C renal; > 100 µM in the assay on SNB-19 CNS; 47.5 µM in the assay on UO-31 renal.
